What was measured:
[1] = tested on: murine embryonic fibroblasts (MEFs); test: Luciferase reporter gene assay in murine fibroblasts electroporated with IVT RNA; type: cell-based; settings: 0.5 μM to 2 μM, mouse fibroblasts, after electroporation
Experimental: (A-C) Primary human foreskin fibroblasts from different donors and suppliers (panel A: BJ fibroblasts; panel B CCD1079Sk; panel C: HFF) and (D) murine embryonic fibroblasts (MEFs) were electroporated with 0.5 μg IVT RNA encoding for firefly luciferase and 1.25 μg IVT RNA encoding for enhanced GFP (eGFP). The cells were plated in duplicates into 96-well-plates at a density of 30000 cells/well. The cells were either left untreated or incubated with increasing amounts of C13H8N4OS (PKR-inhibitor) ranging from 0.5 μM to 2 μM as indicated in the panel legends. Luciferase activity was measured at the indicated time points. Mean values of the duplicates are given.
Transfer of IVT-RNA into cells was performed by electroporation (EP). To this end, 1-10×10^7 cells per EP were harvested, washed sequentially with PBS supplemented with 2 mM EDTA and X-VIVO 15 medium (Lonza), resuspended in 125 μl X-VIVO 15 medium and transferred to a 2-mm gap sterile electroporation cuvette (Bio-RAD, Hercules, Calif., USA). […]
For luciferase assays, cells electroporated with in vitro transcribed RNA coding for luciferase were plated in 96-well white flat-bottom microplates (Nunc, Langenselbold, Germany) and incubated at 37° C. […] Bioluminescence flux was measured with the Infinite M200 microplate luminescence reader (Tecan, Crailsheim, Germany) with 1 s integration time. […]

[2] = tested on: Human primary CD4 and CD8 positive T-cells; type: cell-based; settings: 0.5 μM to 2 μM
CCD1079SK fibroblasts = test: Intracellular abundance and half-life of IVT-RNA constructs (qRT-PCR); type: cell-based, human
Experimental: (A) CCD1079SK fibroblasts were either mock electroporated or electroporated with IVT RNA encoding for firefly luciferase (1 μg), eGFP (1.25 μg), SV40 Large T (1.25 μg), HPV16-E6 (1.25 μg), OCT4, SOX2, KLF4, cMYC, NANOG and LIN28 (2.5 μg OCT4 and equimolar amounts for the others). Electroporations were performed in 2 mm gap cuvettes using optimized parameters for CCDs. After electroporation cells were either left untreated or incubated with 2 μM C13H8N4OS for 24 h or 48 h. After 72 h cells were harvested to extract total RNA and perform qRT-PCR analysis for the codon optimized IVT-RNA constructs OCT4 and SOX2. […] Decay of transcripts was plotted against time and difference between half-lifes (t1/2) of the construct in absence or presence of C13H8N4OS was calculated (Δt1/2=t1/2 (+C13H8N4OS)−t1/2 (−C13H8N4OS)). […]
Total cellular RNA was extracted from cells with RNeasy Mini Kit or RNeasy Micro Kit (Qiagen, Hilden, Germany), reverse transcribed with oligo-dT18 using Superscript II (Invitrogen, Carlsbad, Calif., USA), and subjected to real-time quantitative analysis on ABI PRISM 7700 Sequence Detection System instrument and software (Applied Biosystems, Foster City, Calif., USA) using the QuantiTect SYBR Green PCR Kit (Qiagen). […]

O=C1Nc2ccc3ncsc3c2/C1=C/c1c[nH]cn1 [C13H8N4OS, 6,8-dihydro-8-(1H-imidazol-5-ylmethylene)-7H-pyrrolo[2,3-g]benzothiazol-7-one]
luciferase expression [1]: dose dependent increase | GFP expression (MFI) [2]: Neither in T-cells nor in iDCs PKR inhibition led to an increased GFP expression | abundance of IVT RNA (OCT4, SOX2 constructs) (CCD1079SK fibroblasts; 2 μM for 24 h or 48 h, harvested after 72 h): increased the abundance of IVT RNA for 72 h | prolongation of half life of IVT RNA constructs OCT4, SOX2, KLF4 and cMYC (Δt1/2) (CCD1079SK fibroblasts; 2 μM for 80 h, presence vs absence of C13H8N4OS): 1 to 2.5 h

Reference: patent publication US20140030808A1, “Method for Cellular RNA Expression” (BIONTECH AG, priority 2010, published 2014)
